Counter-ions that a name gives are not always drawn.
Columns and labels:
[1] = target: recombinant BACE1 protein (Homo sapiens, UniProt P56817); test: Biochemical FRET based assay; details: recombinant BACE1 1 μg/ml, 120 minutes at room temperature, pH 5.0; for IC50: read-out: Biochemical FRET based assay pIC50 (converted)
Procedure, shortened: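 Recombinant BACE1 (1 μg/ml final) was incubated 120 minutes at room temperature with […] Mca/Dnp-labelled 13-mer APP Swedish-mutant peptide in 40 mM citrate pH 5.0, 0.04% PEG, 4% DMSO, with or without compound. Cleavage was measured as fluorescence (ex 320/em 405 nm), given as RFU difference between T120 and T0.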

Abeta total = test: Cellular αLisa assay in SKNBE2 cells, Abeta total; type: cell-based, human; details: incubated for 18 hours; for IC50: Homo sapiens, SKNBE2, 18 h, read-out: Cellular αLisa assay in SKNBE2 cells Abetatotal pIC50 (converted)
Procedure, shortened: (§1)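 Human neuroblastoma SKNBE2 cells expressing wild-type hAPP695 were incubated with compound for 18 hours. Secreted Abeta total and Abeta 1-42 in medium were quantified by sandwich αLisa: biotinylated AbN/25 on streptavidin donor beads with Ab4G8 (total) or cAb42/26 (1-42) acceptor beads. Light emission read after 1 hour (ex 650 nm, em 615 nm).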

Abeta 1-42 = test: Cellular αLisa assay in SKNBE2 cells, Abeta 1-42; type: cell-based, human; details: incubated for 18 hours; for IC50: Homo sapiens, SKNBE2, 18 h, read-out: Cellular αLisa assay in SKNBE2 cells Abeta 42 pIC50 (converted)
Procedure, shortened: as §1

Chain of recombinant BACE1 protein (P56817 46-501): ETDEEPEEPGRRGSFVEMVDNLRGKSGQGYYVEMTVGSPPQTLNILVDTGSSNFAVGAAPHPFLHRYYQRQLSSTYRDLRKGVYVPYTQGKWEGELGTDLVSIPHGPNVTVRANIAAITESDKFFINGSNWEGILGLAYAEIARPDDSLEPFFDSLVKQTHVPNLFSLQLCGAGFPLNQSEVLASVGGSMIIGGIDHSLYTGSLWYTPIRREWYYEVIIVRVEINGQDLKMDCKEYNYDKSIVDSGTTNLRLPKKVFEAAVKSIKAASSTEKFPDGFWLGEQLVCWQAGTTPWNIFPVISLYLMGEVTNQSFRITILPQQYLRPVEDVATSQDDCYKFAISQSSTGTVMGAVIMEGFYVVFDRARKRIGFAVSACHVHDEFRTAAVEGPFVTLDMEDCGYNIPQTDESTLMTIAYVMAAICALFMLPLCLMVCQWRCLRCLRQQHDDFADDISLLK

With `CCC1(c2cc(NC(=O)c3cnc(OC)cn3)ccc2F)N=C(N)COC1(F)C(F)(F)F` (centres unmarked) [Compound 301] the IC50 [1] was 0.0813 µM, the “Cellular αLisa assay in SKNBE2 cells Abetatotal pIC50” value (Abeta total) was 7.17 and the “Cellular αLisa assay in SKNBE2 cells Abeta 42 pIC50” value (Abeta 1-42) was 7.14. For the same molecule, the melting point was 196.44 °C.
With `C[C@]1(c2cc(-c3cncc(Cl)c3)c(F)cc2F)N=C(N)CO[C@H]1C(F)(F)F` [Compound 255] the IC50 [1] was 0.447 µM, the IC50 (Abeta total) was 0.347 µM and the IC50 (Abeta 1-42) was 0.398 µM. The melting point was 141.4 °C.
With `C[C@]1(c2cc(-c3cncnc3)c(F)cc2F)N=C(N)CO[C@H]1C(F)(F)F` [Compound 254] the IC50 [1] was 0.851 µM, the IC50 (Abeta total) was 0.316 µM and the IC50 (Abeta 1-42) was 0.347 µM. It also gave a melting point of 101.3 °C.
In the case of `CC1(c2cccc(-c3ccccc3)c2)COCC(N)=N1` (racemic) (as salt: TFA) [Compound 1, rac-5-biphenyl-3-yl-5-methyl-5,6-dihydro-2H-1,4-oxazin-3-amine trifluoroacetate salt], the melting point is reported as 217.2 °C.
For `CC1(c2cccc(NC(=O)c3ccc(Cl)cn3)c2)N=C(N)COC1(F)C(F)(F)F` (single isomer, unassigned) [Compound 112], the “Cellular αLisa assay in SKNBE2 cells Abetatotal pIC50” value (Abeta total) was 5.71, the “Cellular αLisa assay in SKNBE2 cells Abeta 42 pIC50” value (Abeta 1-42) was 5.68 and the melting point was 207.3 °C.
In the case of `CC1(c2cc(-c3cncnc3)ccc2F)N=C(N)COC1F` (single isomer, unassigned) [Compound 127], the IC50 [1] is reported as over 30.2 µM, the “Cellular αLisa assay in SKNBE2 cells Abetatotal pIC50” value (Abeta total) is reported as under 5 and the “Cellular αLisa assay in SKNBE2 cells Abeta 42 pIC50” value (Abeta 1-42) is reported as under 5.
For `COc1cncc(-c2cccc(C3(C)N=C(N)COC3C(F)(F)F)c2)c1` (single isomer, unassigned) [Compound 103], the IC50 [1] was 2.09 µM, the “Cellular αLisa assay in SKNBE2 cells Abetatotal pIC50” value (Abeta total) was 6.35 and the “Cellular αLisa assay in SKNBE2 cells Abeta 42 pIC50” value (Abeta 1-42) was 6.38.
For `C[C@@]1(c2cc(-c3cncnc3)c(F)cc2F)COC2(CC2)C(N)=N1` [Compound 150], the IC50 [1] was 1.1 µM, the IC50 (Abeta total) was 0.2 µM and the IC50 (Abeta 1-42) was 0.2 µM.
In the case of `C[C@@]1(c2cccc(-c3cncnc3)c2)COC2(CC2)C(N)=N1` (as salt: fumarate) [Compound 74], the melting point is reported as 193.3 °C.
For `C[C@@]1(c2cc(-c3cc(Cl)cc(Cl)c3)c(F)cc2F)COCC(N)=N1` [Compound 48], the “Biochemical FRET based assay pIC50” value [1] was 5.73, the “Cellular αLisa assay in SKNBE2 cells Abetatotal pIC50” value (Abeta total) was 6.22 and the “Cellular αLisa assay in SKNBE2 cells Abeta 42 pIC50” value (Abeta 1-42) was 6.19.
In the case of `CC1(c2cccc(NC(=O)c3ncc(Cl)cc3F)c2)N=C(N)COC1F` (single isomer, unassigned) [Compound 164], the IC50 [1] is reported as over 30.2 µM, the “Cellular αLisa assay in SKNBE2 cells Abetatotal pIC50” value (Abeta total) is reported as under 5 and the “Cellular αLisa assay in SKNBE2 cells Abeta 42 pIC50” value (Abeta 1-42) is reported as under 5.
Molecule `C[C@]1(c2cc(NC(=O)c3ncc(C#N)cc3Cl)ccc2F)N=C(N)CO[C@]1(F)C(F)(F)F` [Compound 306] has an IC50 [1] of 0.0363 µM, an IC50 (Abeta total) of 0.00741 µM and an IC50 (Abeta 1-42) of 0.00692 µM.
For `C[C@@]1(c2ccnc(-c3cc(Cl)cc(Cl)c3)c2)N=C(N)CO[C@H]1F` (single isomer, unassigned) [Compound 278, (5S*,6S*)-5-[2-(3,5-dichlorophenyl)pyridin-4-yl]-6-fluoro-5-methyl-5,6-dihydro-2H-1,4-oxazin-3-amine], the IC50 [1] was 8.71 µM, the IC50 (Abeta total) was 3.16 µM and the IC50 (Abeta 1-42) was 3.24 µM.
For `NC1=N[C@@](c2cc(NC(=O)c3cnc(OCC(F)(F)F)cn3)ccc2F)(C2CC2)[C@@H](F)OC1` [Compound 264], the IC50 [1] was 0.0912 µM, the IC50 (Abeta total) was 0.316 µM and the IC50 (Abeta 1-42) was 0.347 µM.
In the case of `CC1(c2cc(-c3cncnc3)ccc2F)COCC(N)=N1` (racemic) [Compound 58], the “Biochemical FRET based assay pIC50” value [1] is reported as 5.11, the “Cellular αLisa assay in SKNBE2 cells Abetatotal pIC50” value (Abeta total) is reported as 6.68 and the “Cellular αLisa assay in SKNBE2 cells Abeta 42 pIC50” value (Abeta 1-42) is reported as 6.7.
With `CC1(c2cccc(-c3cccc(C#N)c3)c2)COCC(N)=N1` (racemic) [Compound 10] the “Biochemical FRET based assay pIC50” value [1] was 5.12, the “Cellular αLisa assay in SKNBE2 cells Abetatotal pIC50” value (Abeta total) was 6.58 and the “Cellular αLisa assay in SKNBE2 cells Abeta 42 pIC50” value (Abeta 1-42) was 6.
With `NC1=N[C@@](c2cccc(NC(=O)c3cnc(OCC(F)(F)F)cn3)c2)(C2CC2)[C@H](F)OC1` [Compound 274] the IC50 [1] was 0.263 µM, the IC50 (Abeta total) was 0.12 µM and the IC50 (Abeta 1-42) was 0.12 µM.
For `CC1(c2cccc(NC(=O)c3ccncn3)c2)N=C(N)COC1(F)C(F)(F)F` (single isomer, unassigned) [Compound 188], the IC50 [1] was 0.437 µM, the “Cellular αLisa assay in SKNBE2 cells Abetatotal pIC50” value (Abeta total) was 6.93 and the “Cellular αLisa assay in SKNBE2 cells Abeta 42 pIC50” value (Abeta 1-42) was 6.91.
Molecule `COc1cnc(C(=O)Nc2cccc(C3(C)N=C(N)COC3F)c2)cn1` (centres unmarked) [Compound 80] has an IC50 [1] of 0.0977 µM, an IC50 (Abeta total) of 0.0537 µM and an IC50 (Abeta 1-42) of 0.0603 µM.
With `COc1cncc(-c2cccc(C3(C)N=C(N)COC3F)c2)c1` (single isomer, unassigned) [Compound 92] the IC50 [1] was 15.1 µM, the “Cellular αLisa assay in SKNBE2 cells Abetatotal pIC50” value (Abeta total) was 5.51 and the “Cellular αLisa assay in SKNBE2 cells Abeta 42 pIC50” value (Abeta 1-42) was 5.47.
For `Cc1cccnc1C(=O)Nc1ccc(F)c(C2(C)COCC(N)=N2)c1` (centres unmarked) [Compound 30], the “Biochemical FRET based assay pIC50” value [1] was 6.05, the “Cellular αLisa assay in SKNBE2 cells Abetatotal pIC50” value (Abeta total) was 7.66 and the “Cellular αLisa assay in SKNBE2 cells Abeta 42 pIC50” value (Abeta 1-42) was 7.57.
In the case of `COc1cncc(-c2ccc(F)c(C3(C)COCC(N)=N3)c2)c1` (single isomer, unassigned) [Compound 56], the “Biochemical FRET based assay pIC50” value [1] is reported as 5.69, the “Cellular αLisa assay in SKNBE2 cells Abetatotal pIC50” value (Abeta total) is reported as 7.1 and the “Cellular αLisa assay in SKNBE2 cells Abeta 42 pIC50” value (Abeta 1-42) is reported as 7.02.
For `Cc1cc(Cl)cnc1C(=O)Nc1cccc([C@@]2(C3CC3)N=C(N)CO[C@@H]2F)c1` [Compound 297], the IC50 [1] was 0.0389 µM, the IC50 (Abeta total) was 0.0174 µM and the IC50 (Abeta 1-42) was 0.0191 µM.
With `CC1(c2cccc(NC(=O)c3ccc(C#N)cc3)c2)COCC(N)=N1.Cl` (racemic) [Compound 42] the “Biochemical FRET based assay pIC50” value [1] was 5.74, the “Cellular αLisa assay in SKNBE2 cells Abetatotal pIC50” value (Abeta total) was 5.9 and the “Cellular αLisa assay in SKNBE2 cells Abeta 42 pIC50” value (Abeta 1-42) was 5.85.
For `CC1(c2cc(NC(=O)c3ncc(Cl)cc3Cl)ccc2F)N=C(N)COC1F` (centres unmarked) [Compound 78], the IC50 [1] was 0.055 µM, the IC50 (Abeta total) was 0.00851 µM and the IC50 (Abeta 1-42) was 0.0117 µM.
Molecule `Cc1cc(Br)cnc1C(=O)Nc1cccc([C@@]2(C3CC3)N=C(N)CO[C@H]2F)c1` [Compound 272] has an IC50 [1] of 0.0912 µM, an IC50 (Abeta total) of 0.0355 µM and an IC50 (Abeta 1-42) of 0.0363 µM.
In the case of `COc1ccc(C(=O)Nc2ccc(F)c([C@@]3(C)N=C(N)CO[C@]3(F)C(F)(F)F)c2)nc1` [Compound 304], the IC50 [1] is reported as 0.589 µM, the IC50 (Abeta total) is reported as 0.339 µM and the IC50 (Abeta 1-42) is reported as 0.363 µM.
For `NC1=NC(c2cccc(NC(=O)c3ccc(Cl)cn3)c2)(C2CC2)COC1` (single isomer, unassigned) [Compound 195], the IC50 [1] was 0.0537 µM, the “Cellular αLisa assay in SKNBE2 cells Abetatotal pIC50” value (Abeta total) was 8.02 and the “Cellular αLisa assay in SKNBE2 cells Abeta 42 pIC50” value (Abeta 1-42) was 8.01.
Work on `C[C@]1(c2cc(NC(=O)c3ccncn3)ccc2F)N=C(N)CO[C@@]1(F)C(F)(F)F` [Compound 182] yielded an IC50 [1] of 0.55 µM, an IC50 (Abeta total) of 0.204 µM and an IC50 (Abeta 1-42) of 0.209 µM.
`CC1(c2cc(-c3cncnc3)ccc2F)N=C(N)COC1(F)C(F)(F)F` (single isomer, unassigned) [Compound 111] gave an IC50 [1] of 1.48 µM, an IC50 (Abeta total) of 0.49 µM and an IC50 (Abeta 1-42) of 0.437 µM.
In the case of `COc1ccc(-c2cc(C3(C)COCC(N)=N3)c(F)cc2F)cc1` (centres unmarked) [Compound 33], the “Biochemical FRET based assay pIC50” value [1] is reported as 4.91, the “Cellular αLisa assay in SKNBE2 cells Abetatotal pIC50” value (Abeta total) is reported as 5.75 and the “Cellular αLisa assay in SKNBE2 cells Abeta 42 pIC50” value (Abeta 1-42) is reported as 5.72.
For `CC1(c2cc(-c3cncnc3)ccc2F)N=C(N)COC1C(F)(F)F` (single isomer, unassigned) [Compound 268], the IC50 [1] was 0.363 µM, the “Cellular αLisa assay in SKNBE2 cells Abetatotal pIC50” value (Abeta total) was 7.09 and the “Cellular αLisa assay in SKNBE2 cells Abeta 42 pIC50” value (Abeta 1-42) was 7.
`NC1=N[C@@](c2cccc(-c3cncc(F)c3)c2)(C2CC2)[C@H](C(F)(F)F)OC1` [Compound 270] gave an IC50 [1] of 0.132 µM, an IC50 (Abeta total) of 0.0479 µM and an IC50 (Abeta 1-42) of 0.0468 µM.
